Results: patent US20040162263A1, “Pharmaceutical formulations targeting specific regions of the gastrointesinal tract” (priority 2002, published 2004)

Assays:
[1] = Pharmacokinetics of 9-nitro-camptothecin (9NC) in IVAP beagle dog model; type: in vivo, beagle dogs
Experimental: Blood samples were taken systemic and from the portal vein through a sampling/delivery vascular port previously implanted, then plasma was separated by centrifugation and kept frozen at −80° C. until analysis.
The samples were analyzed in a Perkin Elmer liquid chromatography-tandem mass spectrometer system with a PE LC-200 Micro pump, a PE200 Autosampler and a PE Sciex API 365 mass spectrometry unit.
Adult male beagle dogs (between the ages of 1 and 5 years and weighed between 9 and 16 kg) were obtained from Summit Ridge Farms, Susquehanna, Pa. The IVAP dogs were prepared by using a protocol similar to the one used for pentostatin experiments described above.
On the morning of the test, each animal is weighed and placed in the sling. An IV catheter is installed in the brachial vein for systemic blood sampling with a multiuse vacutainer needle adapter. This is flushed with heparinized saline (50 units/ml) to maintain potency between sampling. When necessary, a 20 g or 22 g right-angled Huber infusion set would be placed in the PV port and attached to a three-way stopcock for PV blood sampling.
The preparation of the dose depends on the route of study. In case of IV and PV administration, the drug was dissolved in dimethylacetamide (DMA) at 5 mg/ml and 0.5 ml of the DMA concentrate filtered through a […] filter into 4.5 ml of diluent (51% PEG-400 49% 0.001 M H3PO4) prior to administration to the brachial or portal vein. In the case of all other infusions, as well as oral administration, the drug was dissolved in vegetable oil to a concentration of 1 mg/ml and drawn up into dosing syringes. Animals were dosed IV at 0.1 and 0.2 mg/kg and 0.2 mg/kg for all the other routes of administration tested.
In intravascular studies, the dose is administered via a second catheter and the entire volume is delivered within 45 seconds.
In portal vein studies, the dose is also administered via an additional catheter over a 30 min time period.
In the case of oral dosages, the dose is delivered to the back of the mouth with an appropriate size syringe and is followed with 5 ml of tap water to assist swallowing and clearance of the dose from the mouth. Capsules were administered similarly by placing them at the back of the mouth and giving around 5 ml of water to facilitate swallowing.
For all other tests, the dosage is infused into the appropriate intestinal port and flushed with 2-3 ml of sterile saline. The dead space volume of the ports and tubing vary slightly between individuals, but are generally less than 0.5 ml total. […]
Systemic blood samples allow the calculation of AUC0-inf after oral capsule administration only and portal vein AUC for all the routes of administration.

[2] = Physico-chemical properties of decitabine (solubility, stability); type: physicochemical; conditions: room temp
[3] = 9-NC 0.2 mg/kg COLON port, 0.17 hr
[4] = 9-NC 0.2 mg/kg ileum port, 0.17 hr
[5] = 9-NC 0.2 mg/kg jejunal port, 0.17 hr
[6] = portal vein samples, 9-NC via COLON port
[7] = portal vein samples, 9-NC via ILEUM port
[8] = portal vein samples, 9-NC via JEJUNUM port
[9] = systemic samples, 9-NC via COLON port
[10] = systemic samples, 9-NC via ILEUM port
[11] = systemic samples, 9-NC via JEJUNUM port

CC[C@@]1(O)C(=O)OCc2c1cc1n(c2=O)Cc2cc3c([N+](=O)[O-])cccc3nc2-1 [9-NC, 9-nitro-20(S)-camptothecin]
Mean plasma concentration, Portal Vein [1, 3]: 0.53 ± 0.05 ng/mL
Mean plasma concentration, Systemic [1, 3]: 0.117 ng/mL
Mean plasma concentration, Portal Vein [1, 4]: 0.44 ± 0.10 ng/mL
Mean plasma concentration, Systemic [1, 4]: 0.11 ± 0.01 ng/mL
Mean plasma concentration, Portal Vein [1, 5]: 0.54 ± 0.22 ng/mL
Mean plasma concentration, Systemic [1, 5]: BQL
Mean plasma concentration, Portal Vein ([1]; COLON port, 0.5 hr): 0.37 ± 0.12 ng/mL
Mean plasma concentration, Systemic ([1]; COLON port, 0.5 hr): 0.1 ng/mL
Mean plasma concentration, Portal Vein ([1]; COLON port, 1 hr): 0.37 ± 0.15 ng/mL
Mean plasma concentration, Systemic ([1]; COLON port, 1 hr): 0.114 ng/mL
Mean plasma concentration, Systemic ([1]; COLON port, 1.5 hr): BQL
Mean plasma concentration, Portal Vein ([1]; COLON port, 2 hr): 0.16 ± 0.05 ng/mL
Mean plasma concentration, Systemic ([1]; COLON port, 2 hr): 0.134 ng/mL
Mean plasma concentration, Systemic ([1]; COLON port, 4 hr): BQL
Mean plasma concentration, Systemic ([1]; COLON port, 6 hr): BQL
Mean plasma concentration, Systemic ([1]; COLON port, 8 hr): BQL
Mean plasma concentration, Systemic ([1]; COLON port, 12 hr): BQL
Mean plasma concentration, Systemic ([1]; COLON port, 24 hr): 0.11 ng/mL
clearance ([1]; IV 0.1 mg/kg): 29.3 ± 3.17 mL/min/kg
half-life ([1]; IV 0.1 mg/kg, systemic): 0.88 ± 0.45 h
clearance ([1]; IV 0.2 mg/kg): 28.8 ± 13 mL/min/kg
Bioavailability (high iv dose) ([1]; Intracolon): 0.1 ± 0.1%
Bioavailability (low iv dose) ([1]; Intracolon): 0.1 ± 0.1%
Bioavailability, Average ([1]; Intracolon): 0.1%
Mean AUC0-inf of 9-NC, Portal Vein AUC ([1]; Intracolon 0.2 mg/kg): 1.48 ± 0.29 ng·h/mL
Mean AUC0-inf of 9-NC, Systemic AUC ([1]; Intracolon 0.2 mg/kg): 0.07 ± 0.06 ng·h/mL
Bioavailability (high iv dose) ([1]; Intraileum): 1.6 ± 1.1%
Bioavailability (low iv dose) ([1]; Intraileum): 1.6 ± 1.2%
Bioavailability, Average ([1]; Intraileum): 1.6%
Mean AUC0-inf of 9-NC, Portal Vein AUC ([1]; Intraileum 0.2 mg/kg): 1.76 ± 0.95 ng·h/mL
Mean AUC0-inf of 9-NC, Systemic AUC ([1]; Intraileum 0.2 mg/kg): 1.65 ± 1.15 ng·h/mL
Bioavailability (high iv dose) ([1]; Intrajejunal): 3.0 ± 3.2%
Bioavailability (low iv dose) ([1]; Intrajejunal): 3.0 ± 3.2%
Bioavailability, Average ([1]; Intrajejunal): 3.2%
Mean AUC0-inf of 9-NC, Portal Vein AUC ([1]; Intrajejunal 0.2 mg/kg): 4.46 ± 4.00 ng·h/mL
Mean AUC0-inf of 9-NC, Systemic AUC ([1]; Intrajejunal 0.2 mg/kg): 1.03 ± 1.34 ng·h/mL
Mean AUC0-inf of 9-NC, Portal Vein AUC ([1]; Intravenous - High (0.2 mg/kg)): 93.61 ± 17.02 ng·h/mL
Mean AUC0-inf of 9-NC, Systemic AUC ([1]; Intravenous - High (0.2 mg/kg)): 118.33 ± 21.82 ng·h/mL
Mean AUC0-inf of 9-NC, Portal Vein AUC ([1]; Intravenous - Low (0.1 mg/kg)): 45.05 ± 4.08 ng·h/mL
Mean AUC0-inf of 9-NC, Systemic AUC ([1]; Intravenous - Low (0.1 mg/kg)): 57.25 ± 5.84 ng·h/mL
Bioavailability (high iv dose) ([1]; Oral - capsule): 4.1 ± 3.8%
Bioavailability (low iv dose) ([1]; Oral - capsule): 4.2 ± 4.0%
Bioavailability, Average ([1]; Oral - capsule): 4.1%
Mean AUC0-inf of 9-NC, Portal Vein AUC ([1]; Oral - capsule 0.2 mg/kg): 11.48 ± 1.50 ng·h/mL
Mean AUC0-inf of 9-NC, Systemic AUC ([1]; Oral - capsule 0.2 mg/kg): 4.75 ± 4.61 ng·h/mL
Bioavailability (high iv dose) ([1]; Oral - suspension): 0.4 ± 0.6%
Bioavailability (low iv dose) ([1]; Oral - suspension): 0.4 ± 0.6%
Bioavailability, Average ([1]; Oral - suspension): 0.4%
Mean AUC0-inf of 9-NC, Portal Vein AUC ([1]; Oral - suspension 0.2 mg/kg): 11.97 ± 9.88 ng·h/mL
Mean AUC0-inf of 9-NC, Systemic AUC ([1]; Oral - suspension 0.2 mg/kg): 0.48 ± 0.53 ng·h/mL
Bioavailability (high iv dose) ([1]; Portal vein): 5.2 ± 0.8%
Bioavailability (low iv dose) ([1]; Portal vein): 5.4 ± 1.4%
Mean AUC0-inf of 9-NC, Systemic AUC ([1]; Portal vein infusion 0.2 mg/kg): 6.24 ± 2.11 ng·h/mL
Mean plasma concentration, Portal Vein ([1]; ileum port, 0.5 hr): 0.56 ± 0.32 ng/mL
Mean plasma concentration, Systemic ([1]; ileum port, 0.5 hr): 0.12 ng/mL
Mean plasma concentration, Portal Vein ([1]; ileum port, 1 hr): 0.22 ± 0.03 ng/mL
Mean plasma concentration, Systemic ([1]; ileum port, 1 hr): BQL
Mean plasma concentration, Portal Vein ([1]; ileum port, 1.5 hr): 0.34 ± 0.29 ng/mL
Mean plasma concentration, Systemic ([1]; ileum port, 1.5 hr): 0.13 ± 0.04 ng/mL
Mean plasma concentration, Portal Vein ([1]; ileum port, 2 hr): 0.13 ± 0.02 ng/mL
Mean plasma concentration, Systemic ([1]; ileum port, 2 hr): 0.10 ± 0.00 ng/mL
Mean plasma concentration, Portal Vein ([1]; ileum port, 3 hr): 0.12 ± 0.00 ng/mL
Mean plasma concentration, Systemic ([1]; ileum port, 3 hr): 0.17 ng/mL
Mean plasma concentration, Portal Vein ([1]; ileum port, 4 hr): BQL
Mean plasma concentration, Systemic ([1]; ileum port, 4 hr): 0.13 ng/mL
Mean plasma concentration, Portal Vein ([1]; ileum port, 6 hr): 0.10 ng/mL
Mean plasma concentration, Systemic ([1]; ileum port, 6 hr): BQL
Mean plasma concentration, Systemic ([1]; ileum port, 8 hr): 0.14 ng/mL
Mean plasma concentration, Systemic ([1]; ileum port, 12 hr): 0.14 ± 0.02 ng/mL
Mean plasma concentration, Systemic ([1]; ileum port, 24 hr): 0.13 ng/mL
Mean plasma concentration, Portal Vein ([1]; jejunal port, 0.5 hr): 0.41 ± 0.00 ng/mL
Mean plasma concentration, Systemic ([1]; jejunal port, 0.5 hr): 0.14 ng/mL
Mean plasma concentration, Portal Vein ([1]; jejunal port, 1 hr): 0.56 ± 0.47 ng/mL
Mean plasma concentration, Systemic ([1]; jejunal port, 1 hr): 0.15 ng/mL
Mean plasma concentration, Portal Vein ([1]; jejunal port, 2 hr): 0.37 ± 0.10 ng/mL
Mean plasma concentration, Systemic ([1]; jejunal port, 2 hr): 0.14 ng/mL
Mean plasma concentration, Portal Vein ([1]; jejunal port, 3 hr): 0.41 ng/mL
Mean plasma concentration, Systemic ([1]; jejunal port, 3 hr): 0.15 ng/mL
Mean plasma concentration, Portal Vein ([1]; jejunal port, 4 hr): BLOQ
Mean plasma concentration, Systemic ([1]; jejunal port, 4 hr): BQL
Mean plasma concentration, Portal Vein ([1]; jejunal port, 6 hr): BLOQ
Mean plasma concentration, Systemic ([1]; jejunal port, 6 hr): BQL
Mean plasma concentration, Portal Vein ([1]; jejunal port, 8 hr): BLOQ
Mean plasma concentration, Systemic ([1]; jejunal port, 8 hr): 1.36 ± 1.73 ng/mL
Mean plasma concentration, Systemic ([1]; jejunal port, 10 hr): BQL
Mean plasma concentration, Portal Vein ([1]; jejunal port, 12 hr): 0.15 ng/mL
Mean plasma concentration, Systemic ([1]; jejunal port, 12 hr): BQL
Mean plasma concentration, Portal Vein ([1]; jejunal port, 24 hr): BLOQ
Mean plasma concentration, Systemic ([1]; jejunal port, 24 hr): BQL
AUC0-INF ([1]; portal vein samples, 0.2 mg/kg 9-NC via COLON port): 1.48 ± 0.29 ng·h/mL
AUC0-INF ([1]; portal vein samples, 0.2 mg/kg 9-NC via ILEUM port): 1.76 ± 0.95 ng·h/mL
AUC0-INF ([1]; portal vein samples, 0.2 mg/kg 9-NC via JEJUNUM port): 4.46 ± 4.00 ng·h/mL
AUCLast [1, 6]: 0.73 ± 0.63 ng·h/mL
CMAX [1, 6]: 0.79 ± 0.61 ng/mL
MRT [1, 6]: 2.21 ± 1.46 h
TMAX [1, 6]: 1.67 ± 0.29 h
AUCLast [1, 7]: 0.87 ± 0.11 ng·h/mL
CMAX [1, 7]: 0.65 ± 0.20 ng/mL
MRT [1, 7]: 8.65 ± 1.62 h
T1/2 [1, 7]: 6.10 ± 7.50 h
TMAX [1, 7]: 0.34 ± 0.23 h
AUCLast [1, 8]: 0.85 ± 0.55 ng·h/mL
CMAX [1, 8]: 0.66 ± 0.24 ng/mL
MRT [1, 8]: 15.12 ± 1.62 h
T1/2 [1, 8]: 7.59 ± 3.14 h
TMAX [1, 8]: 0.56 ± 0.42 h
AUC0-INF ([1]; systemic samples, 0.2 mg/kg 9-NC via JEJUNUM port): 6.66 ng·h/mL
AUCLast [1, 9]: 0.07 ± 0.06 ng·h/mL
CMAX [1, 9]: 0.08 ± 0.07 ng/mL
F [1, 9]: 0.1 ± 0.1%
TMAX [1, 9]: 0.72 ± 1.11 h
AUCLast [1, 10]: 1.65 ± 1.15 ng·h/mL
CMAX [1, 10]: 0.17 ± 0.01 ng/mL
Cl/F [1, 10]: 85.5 mL/min/kg
F [1, 10]: 1.6 ± 1.2%
TMAX [1, 10]: 2.25 ± 1.06 h
Vz [1, 10]: 1441 L/kg
AUCLast [1, 11]: 1.03 ± 1.34 ng·h/mL
CMAX [1, 11]: 0.96 ± 1.40 ng/mL
Cl/F [1, 11]: 500 mL/min/kg
F [1, 11]: 3.0 ± 3.2%
MRT [1, 11]: 54.11 h
TMAX [1, 11]: 4.00 ± 3.61 h
Vz [1, 11]: 1469 L/kg

Nc1ncn([C@H]2C[C@H](O)[C@@H](CO)O2)c(=O)n1 [Decitabine monohydrate]
stability [2]: stable
